Patent publication US11149035B2, “Chemical compounds as H—PGDS inhibitors” (GlaxoSmithKline Intellectual Property Development Limited, priority 2017, dated 2021)

Target: T1, haematopoietic prostaglandin D synthase (H-PGDS) (Homo sapiens, UniProt O60760)
T1 construct: Full length human H-PGDS cDNA (Invitrogen Ultimate ORF IOH13026) was amplified by PCR; 6-His (N); TEV protease cleavage site (N); made in house; host or cells: E. coli BL21 (DE3*)
Test: H-PGDS RapidFire high throughput mass spectrometry assay (conversion of PGH2 to PGD2)
Assay type: biochemical
Settings: 10 nM H-PGDS, PGH2 formed in situ by COX-2 from arachidonic acid; four parameter curve fit; read-out: Potency Range (mean pIC50) (converted)
Procedure: The H-PGDS RapidFire™ mass spectrometric assay monitors conversion of prostaglandin H2 (PGH2) to prostaglandin D2 (PGD2) by haematopoietic prostaglandin D synthase (H-PGDS). In the assay format described here, the substrate (PGH2) is formed in situ by the action of cyclooxygenase-2 on arachidonic acid. This first step is set up to be fast, and generates a burst of PGH2 at ˜10 μM. The PGH2 is then further converted to PGD2 by the H-PGDS enzyme. […] Plates are then read on the RapidFire™ high throughput solid phase extraction system (Agilent) which incorporates a solid phase extraction step coupled to a triple quadrupole mass spectrometer (AB SCIEX). Relative levels of PGD2 and PGF2α, which acts as a surrogate for substrate, are measured and a percent conversion calculated. Inhibitors are characterised as compounds which lower the conversion of PGH2 to PGD2.
Full length human H-PGDS cDNA (Invitrogen Ultimate ORF IOH13026) was amplified by PCR with the addition of a 5′ 6-His tag and TEV protease cleavage site. The PCR product was digested with NdeI and XhoI and ligated into pET22b+ (Merck Novagen®). Expression was carried out in E. coli strain BL21 (DE3*) using auto-induction Overnight Express™ Instant TB medium (Merck Novagen®) supplemented with 1% glycerol. The culture was first grown at 37° C. and the temperature was reduced to 25° C. when OD600 reached 2.0. Cells were harvested by centrifugation after a further 18 hours. 10 g of E. coli cell pellet was suspended to a total volume of 80 mL in lysis buffer (20 mM Tris-Cl pH 7.5, 300 mM NaCl, 20 mM imidazole, 5 mM β-mercaptoethanol, 10% glycerol). 1 mg/mL protease inhibitors (Protease Inhibitor Cocktail Set III, Merck Calbiochem®) and 1 mg/mL lysozyme were added to the cell suspension. The suspension was then sonicated for 5 min (UltraSonic Processor VCX 750, Cole-Parmer Instrument Co.) with a micro probe (50% amplitude, 10 sec on/off) and then centrifuged at 100,000 g for 90 minutes (at 4° C.). The supernatant was loaded onto a Ni-NTA HiTrap column (5 mL, GE Healthcare, pre-equilibrated in lysis buffer). The column was washed with 10 column volumes of lysis buffer and eluted with lysis buffer containing 500 mM imidazole. The pooled protein peak fractions were concentrated using a 10 kDa centrifugal filter at 3500 g and 4° C. (Amicon Ultra-15 centrifugal filter unit with Ultracel-10 membrane from Millipore). Further purification of the concentrated protein was carried out using gel filtration chromatography on a HiLoad 26/600 Superdex 75 preparative grade column (GE Healthcare Life Sciences) using 50 mM Tris pH 7.5, 50 mM NaCl, 1 mM dithiothreitol, 1 mM MgCl2. Fractions containing the protein were pooled, concentrated as described above, and stored at −80° C.
The full length human COX-2 gene (accession number L15326) was amplified by PCR to generate an EcoRI—HindIII fragment containing an in-frame FLAG tag. This was subcloned into pFastBac 1 (Invitrogen). The COX-2 FLAG plasmid was recombined into the baculovirus genome according to the BAC-to-BAC protocol described by Invitrogen. Transfection into Spodoptera frugiperda (Sf9) insect cells was performed using Cellfectin (Invitrogen), according to the manufacturer's protocol. Super Sf9 cells were cultured in EX420 media (SAFC Biosciences) to a density of approximately 1.5×10^6 cells/mL within a wave bioreactor. Recombinant virus was added at a Multiplicity of Infection (MOI) of 5 and the culture was allowed to continue for 3 days. Cells were harvested using a continuous feed centrifuge run at 2500 g at a rate of approximately 2 L/min with cooling. The resultant cell slurry was re-centrifuged in pots (2500 g, 20 min, 4° C.) and the cell paste was stored at −80° C. 342 g of cell paste was re-suspended to a final volume of 1600 mL in a buffer of 20 mM Tris-Cl pH 7.4, 150 mM NaCl, 0.1 mM EDTA, 1.3% w/v n-octyl-[…] containing 20 Complete EDTA-free Protease Inhibitor Cocktail tablets (Roche Applied Science). […]

T1 sequence (O60760 whole entry): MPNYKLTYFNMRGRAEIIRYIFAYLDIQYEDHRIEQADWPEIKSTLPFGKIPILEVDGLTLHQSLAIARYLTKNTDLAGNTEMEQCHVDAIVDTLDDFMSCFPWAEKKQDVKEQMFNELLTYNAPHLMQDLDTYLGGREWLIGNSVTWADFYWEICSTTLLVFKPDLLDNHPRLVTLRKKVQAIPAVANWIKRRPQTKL

SMILES | IC50 [nM]
O=C(N[C@H]1C[C@](O)(C(F)(F)F)C1)c1cnc2nc(C3CC3)ccc2c1 [Example 53, 7-cyclopropyl-N-((1s,3s)-3-hydroxy-3-(trifluoromethyl)cyclobutyl)-1,8-naphthyridine-3-carboxamide] | 100 to 1000
O=C(N[C@H]1CC[C@H](N2CC(F)(F)C2)CC1)c1cnc2nc(C3CC3)ccc2c1 [Example 54, 7-Cyclopropyl-N-(trans-4-(3,3-difluoroazetidin-1-yl)cyclohexyl)-1,8-naphthyridine-3-carboxamide] | 10 to 79.4
CC(C)(O)[C@H]1CC[C@H](NC(=O)c2cnc3nc(OCC(F)(F)F)ccc3c2)CC1 [Example 55, N-(trans-4-(2-Hydroxypropan-2-yl)cyclohexyl)-7-(2,2,2-trifluoroethoxy)-1,8-naphthyridine-3-carboxamide] | 100 to 1000
CCOc1ccc2cc(C(=O)N[C@H]3CC[C@H](C(C)(C)O)CC3)cnc2n1 [Example 56, 7-Ethoxy-N-(trans-4-(2-hydroxypropan-2-yl)cyclohexyl)-1,8-naphthyridine-3-carboxamide] | 10 to 79.4
C[C@H]1CCN1c1nc2ncc(C(=O)N[C@H]3CC[C@H](C(C)(C)O)CC3)cc2cc1Cl [Example 58, 6-Chloro-N-(trans-4-(2-hydroxypropan-2-yl)cyclohexyl)-7-((S)-2-methylazetidin-1-yl)-1,8-naphthyridine-3-carboxamide] | < 10
C[C@H]1CCN1c1nc2ncc(C(=O)N[C@H]3CC[C@](C)(O)CC3)cc2cc1Cl [Example 59, 6-Chloro-N-((1r,4s)-4-hydroxy-4-methylcyclohexyl)-7-((S)-2-methylazetidin-1-yl)-1,8-naphthyridine-3-carboxamide] | < 10
C[C@H]1CCN1c1nc2ncc(C(=O)N[C@H]3CCNC3=O)cc2cc1Cl [Example 60, 6-Chloro-7-((S)-2-methylazetidin-1-yl)-N—((S)-2-oxopyrrolidin-3-yl)-1,8-naphthyridine-3-carboxamide] | < 10
C[C@H]1CCN1c1nc2ncc(C(=O)NC3CC4(C3)CC(C(C)(C)O)C4)cc2cc1Cl (stereo partly drawn) [Example 61, (S)-6-Chloro-N-(6-(2-hydroxypropan-2-yl)spiro[3.3]heptan-2-yl)-7-(2-methylazetidin-1-yl)-1,8-naphthyridine-3-carboxamide] | < 10
COc1nc2ncc(C(=O)N[C@H]3CC[C@H](C(C)(C)O)CC3)cc2cc1Cl [Example 62, 6-Chloro-N-(trans-4-(2-hydroxypropan-2-yl)cyclohexyl)-7-methoxy-1,8-naphthyridine-3-carboxamide] | < 10
C[C@H]1CCN1c1nc2ncc(C(=O)N[C@H]3C[C@@](C)(O)C3)cc2cc1Cl [Example 63, 6-chloro-N-((1s,3R)-3-hydroxy-3-methylcyclobutyl)-7-((S)-2-methylazetidin-1-yl)-1,8-naphthyridine-3-carboxamide] | < 10
C[C@H]1CCN1c1nc2ncc(C(=O)N[C@H]3C[C@](C)(O)C3)cc2cc1Cl [Example 64, 6-Chloro-N-((1r,3S)-3-hydroxy-3-methylcyclobutyl)-7-((S)-2-methylazetidin-1-yl)-1,8-naphthyridine-3-carboxamide] | < 10
C[C@H]1CCN1c1nc2ncc(C(=O)N[C@H]3C[C@H](C(C)(C)O)C3)cc2cc1Cl [Example 65, 6-Chloro-N-(trans-3-(2-hydroxypropan-2-yl)cyclobutyl)-7-((S)-2-methylazetidin-1-yl)-1,8-naphthyridine-3-carboxamide] | < 10
C[C@H]1CCN1c1nc2ncc(C(=O)N[C@H]3C[C@](O)(C(F)(F)F)C3)cc2cc1Cl [Example 66, 6-Chloro-N-((1s,3R)-3-hydroxy-3-(trifluoromethyl)cyclobutyl)-7-((S)-2-methylazetidin-1-yl)-1,8-naphthyridine-3-carboxamide] | < 10
C[C@@H]1CNC(=O)[C@H]1NC(=O)c1cnc2nc(N3CC[C@@H]3C)c(Cl)cc2c1 [Example 67, 6-Chloro-N-((3S,4R)-4-methyl-2-oxopyrrolidin-3-yl)-7-((S)-2-methylazetidin-1-yl)-1,8-naphthyridine-3-carboxamide] | < 10
O=C(N[C@H]1C[C@@H](N[C@H](CO)C(F)(F)F)C1)c1cnc2nc(C3CC3)ccc2c1 [Example 68, 7-Cyclopropyl-N-(cis-3-(((R)-1,1,1-trifluoro-3-hydroxypropan-2-yl)amino)cyclobutyl)-1,8-naphthyridine-3-carboxamide] | 100 to 1000
O=C(N[C@H]1C[C@H](N[C@H](CO)C(F)(F)F)C1)c1cnc2nc(C3CC3)ccc2c1 [Example 69, 7-Cyclopropyl-N-(trans-3-(((R)-1,1,1-trifluoro-3-hydroxypropan-2-yl)amino)cyclobutyl)-1,8-naphthyridine-3-carboxamide] | 10 to 79.4
CSc1ncc2cc(C(=O)N[C@H]3CC[C@H](C(C)(C)O)CC3)cnc2n1 [Example 70, N-(trans-4-(2-Hydroxypropan-2-yl)cyclohexyl)-2-(methylthio)pyrido[2,3-d]pyrimidine-6-carboxamide] | < 10
O=C(N[C@H]1CCNC1=O)c1cnc2nc(C3CC3)c(Cl)cc2c1 [Example 71, (S)-6-Chloro-7-cyclopropyl-N-(2-oxopyrrolidin-3-yl)-1,8-naphthyridine-3-carboxamide] | < 10
CC(C)(O)[C@H]1CC[C@H](NC(=O)c2cnc3nc(C4CCC4)ccc3c2)CC1 [Example 72, 7-Cyclobutyl-N-(trans-4-(2-hydroxypropan-2-yl)cyclohexyl)-1,8-naphthyridine-3-carboxamide] | 10 to 79.4
CC(C)(O)[C@H]1C[C@H](NC(=O)c2cnc3nc(C4CC4)c(Cl)cc3c2)C1 [Example 73, 6-Chloro-7-cyclopropyl-N-(trans-3-(2-hydroxypropan-2-yl)cyclobutyl)-1,8-naphthyridine-3-carboxamide] | < 10
C[C@]1(O)CC[C@H](NC(=O)c2cnc3nc(C4CC4)c(Cl)cc3c2)CC1 [Example 74, 6-Chloro-7-cyclopropyl-N-((1r,4r)-4-hydroxy-4-methylcyclohexyl)-1,8-naphthyridine-3-carboxamide ethyl acetate solvate] | < 10
C[C@]1(O)C[C@H](NC(=O)c2cnc3nc(C4CC4)c(Cl)cc3c2)C1 [Example 75, 6-Chloro-7-cyclopropyl-N-((1r,3r)-3-hydroxy-3-methylcyclobutyl)-1,8-naphthyridine-3-carboxamide] | 10 to 79.4
C[C@]1(O)C[C@@H](NC(=O)c2cnc3nc(C4CC4)c(Cl)cc3c2)C1 [Example 76, 6-Chloro-7-cyclopropyl-N-((1s,3s)-3-hydroxy-3-methylcyclobutyl)-1,8-naphthyridine-3-carboxamide] | < 10
O=C(N[C@H]1C[C@](O)(C(F)(F)F)C1)c1cnc2nc(C3CC3)c(Cl)cc2c1 [Example 77, 6-Chloro-7-cyclopropyl-N-((1s,3s)-3-hydroxy-3-(trifluoromethyl)cyclobutyl)-1,8-naphthyridine-3-carboxamide] | < 10
C[C@H]1CCN1c1cc2ncc(C(=O)N[C@@H]3C(=O)NCC3(C)C)cc2cn1 [Example 78, N—((S)-4,4-Dimethyl-2-oxopyrrolidin-3-yl)-7-((S)-2-methylazetidin-1-yl)-1,6-naphthyridine-3-carboxamide] | 100 to 1000
